Data on two molecules can be found in patent US11096931B2, “Amide derivatives useful in the treatment of HBV infection or HBV-induced diseases” (Janssen Sciences Ireland Unlimited Company, priority 2019, dated 2021).

In series [1] the test system is HBV. Put plainly: anti HBV activity, HepG2.117 cell line, intracellular HBV DNA by real-time PCR. Format: cell-based, hepatitis B virus. To be noted: Hepatitis B virus, 72 h; mean value; HepG2.117 cells, 3 days of treatment, intracellular HBV DNA; read-out: HBV-AVE-HepG2.117_intra_EC50. On the procedure:
The anti HBV activity was measured using the HepG2.117 cell line, a stable, inducible HBV producing cell line, which replicates HBV in the absence of doxicycline (Tet-off system). The HepG2 cell line is available from ATCC® under number HB-8065. Transfection of the HepG2 cell line can be as described in Sun and Nassal 2006 Journal of Hepatology 45 (2006) 636-645 “Stable HepG2-and Huh7-based human hepatoma cell lines for efficient regulated expression of infectious hepatitis B virus”.
For the antiviral assay, HBV replication was induced, followed by a treatment with serially diluted compound in 96-well plates. After 3 days of treatment, the antiviral activity was determined by quantification of intracellular HBV DNA using real-time PCR and an HBV specific primer set and probe.

A short description of series [2]: Cytotoxicity, ATPlite cell viability. The note with it: human, mean value, HepG2 or HepG2.117 cells. The format is cell-based. As for the experimental part: Cytotoxicity of the compounds was tested using HepG2 or HepG2.117 cells, incubated for 4 days in the presence of compounds. The viability of the cells was assessed using the Perkin Elmer ATPlite Luminescence Assay System.”

A short description of series [3]: Pharmacokinetics assessment in mice. Format: in vivo, C57BL mice. To be noted: mouse; for clearance / AUC(0-t) / Cmax: male, C57BL, plasma; for clearance: IV (PEG400) 2.5 mg/kg. On the procedure: The pharmacokinetic profile was evaluated in fed male C57BL mice (n=3/group). Mice were i.v. injected with test compound at 2.5 mg/kg, formulated as solution in PEG400/water (70/30), and blood samples were collected from the dorsal metatarsal vein at 0.05, 0.117, 0.333, 1, 2, 4, 7, and 24 hours into EDTA-containing microcentrifuge tubes. Test compound was administered p.o. at 10 mg/kg and 50 mg/kg, formulated as solution in PEG400, and blood samples were collected from the dorsal metatarsal vein at 0.5, 1, 2, 4, 7, 12 and 24 hours into EDTA-containing microcentrifuge tubes. The blood samples were immediately centrifuged at 4° C. and the plasma was stored at −80° C. Compound concentrations from the plasma samples were analyzed using LC-MS/MS (LCMS-8050 instrument). Individual plasma concentration-time profiles were subjected to a non-compartmental pharmacokinetic analysis (NCA) using Phoenix™ WinNonlin version 6.1. (Certara, N.J., USA).

Series [4] is described as follows: HT EQ solubility assay. To be noted: thermodynamic from solid, read-out: HtEq Sol; for solubility thermodynamic at 24 h: stirred 24 h. The format is physicochemical. As for the experimental part:
The assay was run in triplicate and was semi-automated using the Tecan Fluent for all liquid handling. 20 μL of 10 mM stock solution was dispensed in a 500 μL 96 well plate. DMSO was evaporated (Genevac). A stir bar and 400 μL of buffer/biorelevant media was added. The solution was stirred for 72 h (pH2 and pH7) or 24 h (FaSSIF and FeSSIF). The solution was filtered and the filtrate was quantified by UPLC/UV using a three-points calibration curve.

Series [5] can be described thus: Thermodynamic solubility assay. The note with it: organic solvent or mixture, thermodynamic from solid; thermodynamic solubility in PEG400. Format: physicochemical. As for the experimental part:
To x mg of compound 500 μL of solvent was added (max. conc. y mg/mL). After 24 h/72 h shaking/stirring the solutions were filtered (0.45 μm membrane) and the pH was recorded. The filtrate was diluted to a maximum conc. of 100 μg/mL (CH3CN/0.1N HCl 1/1) and the samples were quantified by LC/UV. Calibration standards were 100 μg/mL, 10 μg/mL and 1 μg/mL.

Setting [6] is: buffer pH 2, aqueous buffer, pH = 2, stirred 72 h.
Setting [7] is: buffer pH 7, aqueous buffer, pH = 7, stirred 72 h.

pEC50: −log10 of the molar value. ≈ marks a conversion by molar mass, not a printed value. Like-named read-outs stand apart in the source and are kept apart here. Bounds are passed on as bounds.

As for `Cc1c(C(=O)C(=O)NC2(c3cn[nH]n3)CC(F)(F)C2)cn(C)c1C(=O)Nc1ccc(F)c(Cl)c1` [Compound 13], the pEC50 in series [1] was 8.52. This molecule yielded a CC50 at 4 days in series [2] of 26.8 µM. The same molecule came in with a clearance in series [3] of 10.2 mL/min/kg. In addition, the AUC(0-t) in series [3] (PO (PEG400) 10 mg/kg) came to 12500 ng·h/mL. In addition, in series [3] (PO (PEG400) 10 mg/kg), the peak level (Cmax) was 2480 ng/mL. Further, the F was 77.3 +/− 19.8% in series [3] (PO (PEG400) 10 mg/kg) and 121 +/− 50% in series [3] (PO (PEG400) 50 mg/kg). For the same molecule, the results for the solubility thermodynamic at 72 h in series [4] (setting [6]) and in series [4] (setting [7]) were 1.1 µM (≈ 0.544 µg/mL) and below 0.6 µM, respectively. Also, the solubility thermodynamic at 24 h came to 150 µM (≈ 74.5 µg/mL) in series [4] (Fessif) and 39.8 µM (≈ 19.7 µg/mL) in series [4] (fassif). Besides, the solubility in series [5] is above 36.4 mg/mL.
Take `Cc1c(C(=O)C(=O)NC2(c3c[nH]nn3)CC(F)(F)C2)c(C)n(C)c1C(=O)Nc1ccc(F)c(C#N)c1` [Compound 28]: in series [1], the pEC50 was 8.10. Also, in series [2], the CC50 at 4 days was above 50 µM. In addition, the clearance in series [3] stood at 73.3 mL/min/kg. The figures for the AUC(0-t) in series [3] (PO (PEG400) 10 mg/kg) and in series [3] (PO (PEG400) 50 mg/kg) were 153 ng·h/mL and 1850 ng·h/mL, respectively. Moreover, the figures for the Cmax in series [3] (PO (PEG400) 10 mg/kg) and in series [3] (PO (PEG400) 50 mg/kg) were 85 ng/mL and 1630 ng/mL, respectively. Further, the F is given as 6.05 +/− 3.56% in series [3] (PO (PEG400) 10 mg/kg) and 14.6 +/− 12^ % in series [3] (PO (PEG400) 50 mg/kg). Besides, the solubility thermodynamic at 72 h in series [4] (setting [6]) and in series [4] (setting [7]) was below 5 µM each time. Moreover, the solubility thermodynamic at 24 h was 277 µM (≈ 138 µg/mL) in series [4] (Fessif) and 46.8 µM (≈ 23.4 µg/mL) in series [4] (fassif). Further, the solubility in series [5] is above 33.9 mg/mL.
